Data taken from PMC2893567 (Macromolecular bioscience, 2010).

Target: cholera toxin B5 subunit (CT B5) (Vibrio cholerae serotype O1, UniProt P01556)
Assay: biochemical
Format: binding

Chain of cholera toxin B5 subunit (CT B5) (P01556 22-124 limits assumed): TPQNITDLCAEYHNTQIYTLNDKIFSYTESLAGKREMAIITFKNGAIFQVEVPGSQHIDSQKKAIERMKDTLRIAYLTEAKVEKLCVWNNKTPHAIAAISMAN

Molecule	Non-specific binding of unmodified peptide	Improvement over galactose	IC50 (IC50 (saccharide concentration)) [mM]
XGAGAGPSGAGAGPSGAGAGPSGAGAGPSGAGAGPXGGGG [35-RCG-2]	less than 20%		
O=C[C@H](O)[C@@H](O)[C@@H](O)[C@H](O)CO [Galactose]		1	30 to 45
XGAKAKPKGAKAKPKGAKAKPKGAKAKPKGAKAKPXGGGG [35-RCK-2]	less than 20%		
